Results published in PubChem BioAssay AID2060887 (Molecular Pharmacology Branch, DTP, NCI, 2025).

Test system: 782815-120-R-J1-PDC complex spheroid viability
Assay: Anticancer human tumor 782815-120-R-J1-PDC patient-derived colon adenocarcinoma cell line growth inhibition [RAS]
Details: for IC50: curve of first compound; for viability, T/C: stronger effect = lower value
Outline: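 Multi-cell-type spheroids: tumor cells plus HUVEC endothelial cells and mesenchymal stem cells. RAS-pathway inhibitors were combined with targeted agents, each dosed in half-log steps down from clinical Cmax, or from 10 microM when Cmax was unknown.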
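Also: spheroids exposed to compounds for 7 days before reading.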
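For viability, T/C in this document: 100% = DMSO vehicle control viability.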

`CCN1CCN(Cc2ccc(Nc3ncc(F)c(-c4cc(F)c5nc(C)n(C(C)C)c5c4)n3)nc2)CC1` + CCn1c(-c2cccnc2C(C)OC)c2c3cc(ccc31)N1CCOC(CC(NC(=O)C(C(C)C)N(C)C(=O)C3(F)CCN(C(=O)C#CC(C)(C)N(C)C)CC3)C(=O)N3CCCC(N3)C(=O)OCC(C)(C)C2)C1 was tested, and the IC50 (second compound 0.000949 µM) was > 1000 nM, the IC50 (second compound 0.003 µM) was > 1000 nM and the IC50 (second compound 0.00949 µM) was > 1000 nM. For the same molecule, the IC50 (second compound 0.03 µM) was > 1000 nM, the IC50 (second compound 0.0949 µM) was > 1000 nM and the IC50 (second compound 0.3 µM) was > 1000 nM. The viability, T/C (second compound 0.000949 µM, first compound 0.00316 µM) was 104%, the viability, T/C (second compound 0.000949 µM, first compound 0.01 µM) was 99.3% and the viability, T/C (second compound 0.000949 µM, first compound 0.0316 µM) was 106%. The viability, T/C (second compound 0.000949 µM, first compound 0.1 µM) was 92%, the viability, T/C (second compound 0.000949 µM, first compound 0.316 µM) was 124% and the viability, T/C (second compound 0.000949 µM, first compound 1 µM) was 125%. For the same molecule, the viability, T/C (second compound 0.003 µM, first compound 0.00316 µM) was 95%, the viability, T/C (second compound 0.003 µM, first compound 0.01 µM) was 97% and the viability, T/C (second compound 0.003 µM, first compound 0.0316 µM) was 95.7%. For the same molecule, the viability, T/C (second compound 0.003 µM, first compound 0.1 µM) was 98%, the viability, T/C (second compound 0.003 µM, first compound 0.316 µM) was 118% and the viability, T/C (second compound 0.003 µM, first compound 1 µM) was 121%. The viability, T/C (second compound 0.00949 µM, first compound 0.00316 µM) was 96.3%, the viability, T/C (second compound 0.00949 µM, first compound 0.01 µM) was 99.6% and the viability, T/C (second compound 0.00949 µM, first compound 0.0316 µM) was 102%. It also gave a viability, T/C (second compound 0.00949 µM, first compound 0.1 µM) of 103%, a viability, T/C (second compound 0.00949 µM, first compound 0.316 µM) of 118% and a viability, T/C (second compound 0.00949 µM, first compound 1 µM) of 127%. The viability, T/C (second compound 0.03 µM, first compound 0.00316 µM) was 99.8%, the viability, T/C (second compound 0.03 µM, first compound 0.01 µM) was 109% and the viability, T/C (second compound 0.03 µM, first compound 0.0316 µM) was 101%. It also gave a viability, T/C (second compound 0.03 µM, first compound 0.1 µM) of 102%, a viability, T/C (second compound 0.03 µM, first compound 0.316 µM) of 117% and a viability, T/C (second compound 0.03 µM, first compound 1 µM) of 127%. It also gave a viability, T/C (second compound 0.0949 µM, first compound 0.00316 µM) of 92.3%, a viability, T/C (second compound 0.0949 µM, first compound 0.01 µM) of 95.5% and a viability, T/C (second compound 0.0949 µM, first compound 0.0316 µM) of 97%. It also gave a viability, T/C (second compound 0.0949 µM, first compound 0.1 µM) of 102%, a viability, T/C (second compound 0.0949 µM, first compound 0.316 µM) of 123% and a viability, T/C (second compound 0.0949 µM, first compound 1 µM) of 134%. The viability, T/C (second compound 0.3 µM, first compound 0.00316 µM) was 92.8%, the viability, T/C (second compound 0.3 µM, first compound 0.01 µM) was 91.6% and the viability, T/C (second compound 0.3 µM, first compound 0.0316 µM) was 104%. It also gave a viability, T/C (second compound 0.3 µM, first compound 0.1 µM) of 110%, a viability, T/C (second compound 0.3 µM, first compound 0.316 µM) of 122% and a viability, T/C (second compound 0.3 µM, first compound 1 µM) of 122%.

`CCC(CC)c1cc(NC2CCC(N)C2)n2nccc2n1` (centres undefined) + C=CC(=O)N1CCN(c2nc(OCC3CCCN3C)nc3c(F)c(-c4nc(N)cc(C)c4C(F)(F)F)c(Cl)cc23)C(C)C1 was tested, and the IC50 (second compound 0.00316 µM) was 2280 nM, the IC50 (second compound 0.01 µM) was 2320 nM and the IC50 (second compound 0.0316 µM) was 2450 nM. The IC50 (second compound 0.1 µM) was 2160 nM, the IC50 (second compound 0.316 µM) was 2540 nM and the IC50 (second compound 1 µM) was 2280 nM. It also gave a viability, T/C (second compound 0.00316 µM, first compound 0.0316 µM) of 108%, a viability, T/C (second compound 0.00316 µM, first compound 0.1 µM) of 111% and a viability, T/C (second compound 0.00316 µM, first compound 0.316 µM) of 106%. It also gave a viability, T/C (second compound 0.00316 µM, first compound 1 µM) of 98.3%, a viability, T/C (second compound 0.00316 µM, first compound 3.16 µM) of 31% and a viability, T/C (second compound 0.00316 µM, first compound 10 µM) of 1.4%. It also gave a viability, T/C (second compound 0.01 µM, first compound 0.0316 µM) of 105%, a viability, T/C (second compound 0.01 µM, first compound 0.1 µM) of 107% and a viability, T/C (second compound 0.01 µM, first compound 0.316 µM) of 108%. The viability, T/C (second compound 0.01 µM, first compound 1 µM) was 104%, the viability, T/C (second compound 0.01 µM, first compound 3.16 µM) was 30.4% and the viability, T/C (second compound 0.01 µM, first compound 10 µM) was 1.14%. It also gave a viability, T/C (second compound 0.0316 µM, first compound 0.0316 µM) of 101%, a viability, T/C (second compound 0.0316 µM, first compound 0.1 µM) of 103% and a viability, T/C (second compound 0.0316 µM, first compound 0.316 µM) of 95.8%. It also gave a viability, T/C (second compound 0.0316 µM, first compound 1 µM) of 115%, a viability, T/C (second compound 0.0316 µM, first compound 3.16 µM) of 34.6% and a viability, T/C (second compound 0.0316 µM, first compound 10 µM) of 1.3%. It also gave a viability, T/C (second compound 0.1 µM, first compound 0.0316 µM) of 102%, a viability, T/C (second compound 0.1 µM, first compound 0.1 µM) of 98.2% and a viability, T/C (second compound 0.1 µM, first compound 0.316 µM) of 104%. The viability, T/C (second compound 0.1 µM, first compound 1 µM) was 98.4%, the viability, T/C (second compound 0.1 µM, first compound 3.16 µM) was 26.2% and the viability, T/C (second compound 0.1 µM, first compound 10 µM) was 1.7%. The viability, T/C (second compound 0.316 µM, first compound 0.0316 µM) was 103%, the viability, T/C (second compound 0.316 µM, first compound 0.1 µM) was 101% and the viability, T/C (second compound 0.316 µM, first compound 0.316 µM) was 95.5%. It also gave a viability, T/C (second compound 0.316 µM, first compound 1 µM) of 106%, a viability, T/C (second compound 0.316 µM, first compound 3.16 µM) of 37.9% and a viability, T/C (second compound 0.316 µM, first compound 10 µM) of 1.49%. The viability, T/C (second compound 1 µM, first compound 0.0316 µM) was 98%, the viability, T/C (second compound 1 µM, first compound 0.1 µM) was 104% and the viability, T/C (second compound 1 µM, first compound 0.316 µM) was 103%. The viability, T/C (second compound 1 µM, first compound 1 µM) was 100%, the viability, T/C (second compound 1 µM, first compound 3.16 µM) was 29.9% and the viability, T/C (second compound 1 µM, first compound 10 µM) was 2.19%.
